The conditions of data set [1]: route: IV or PO; cited from earlier work.
For data set [2], the system named is BxPC3 pancreatic cancer cell line. Put plainly: Tumor growth inhibition in BxPC-3 human pancreatic tumor xenograft model. The class given is in vivo, mouse. The conditions noted are these: gemcitabine 60, 120, 180 and 240 mg/kg once a week, day 0, 7, 14, 21. The procedure:
Tumor cells from the BxPC3 pancreatic cancer cell line (American Tissue Culture Collection (ATCC) CRL-1687) were grown to approximately 80% confluency, trypsinized, collected, washed once in HBSS (Hank's balance salt solution, Mediatech Inc.). Prior to inoculation, cells were washed twice with sterile HBSS, counted using a Nexcelom Cellometer (Nexcelom Bioscience; Lawrence, Mass.) automated counting device which determines cell concentration and viability via Trypan Blue exclusion and diluted with HBSS to a concentration of 1×10^8 cells/mL on ice before inoculation into animals. Male nude mice (Athymic NCr nu/nu mice, Taconic Laboratories, Inc.) approximately 6 weeks old, were inoculated intramuscularly (IM) with 0.05 mL of cell suspension, peritibially, in the left hind leg (adjacent to the tibia periosteum). The tumors in the animals were assessed twice a week and allowed to grow to a mean tumor volume of approximately 350-400 mm^3. Actual tumor volumes were determined using VisualSonics Vevo 770 high-resolution ultrasound (VisulaSonics Inc.; Toronto, Ontario, Canada). […]
The tumor volumes of all mice were measured by capturing images using the VisualSonics ultrasound system 2 times per week. Tumor volume was calculated using a 3D-mode imaging software program (VisualSonics® Vevo 770®, v 3.0.0). The percent tumor growth inhibition (% TGI) was calculated by the following equation: […]
A general note: Xenograft models place foreign cells or tissue in a host animal.

Data set [3] has as its system carbohydrate antigen 19-9 (CA19-9). Put plainly: Serum CA19-9 tumor biomarker ELISA in BxPC-3 xenograft model. The class given is in vivo, mouse. The note with it: day 20 of first dosing cycle. The procedure: C. Measurement of Tumor Biomarkers Biomarkers carbohydrate antigen 19-9 (CA19-9) and carcinoembryonic antigen (CEA) associated with pancreatic cancer were tested to measure therapeutic response. Animals were treated as described in part A. Serum was collected from satellite animals ([…]) from each group on day 0, 6, 13 and 20 of the first dosing cycle. Human CA19-9 was measured using a CA 19-9 ELISA kit (Catalog No. CA199T, Calbiotech, Spring Valley, Calif.) and CEA tumor antigen was measured using a CEA ELISA kit (Catalog No. CE062T, Calbiotech, Spring Valley, Calif.).

The conditions of data set [4]: in vivo; cited from earlier work.
Data set [5] relates to BxPC3 pancreatic cancer cell line. Put plainly: Median survival time (time to survival endpoint) in BxPC-3 xenograft model. It counts as in vivo, mouse. The conditions noted are these: three 4-week dosing cycles; PEGPH20 4.5, nab-paclitaxel 10 mg/kg, gemcitabine 180 mg/kg. The procedure: Following the first four week dosing cycle as set forth in part A, the dosing cycle was repeated two times and time to survival endpoint was followed over time. Briefly, in each dosing cycle, animals were treated with vehicle or PEGPH20 ([…]) with or without nab-paclitaxel (10 mg/kg) intravenously twice a week for four weeks. In each cycle, groups receiving gemcitabine were administered gemcitabine (180 mg/kg) 24 hours after PEGPH20 and/or nab-paclitaxel every 7 days for three weeks of the dose cycle. Time to survival endpoint, a measure of animal survival, was defined as (a) time to tumor volume of greater than 2000 mm^3, (b) time to a greater than 20% bodyweight loss, or (c) time to animal duress or death.

A further data set concerns pancreatic cancer. The note with it: gemcitabine monotherapy (Burris et al. 1997); cited from earlier work.
The target in the next data set is T1, cytidine deaminase (Homo sapiens, UniProt P32320).
T1 construct: for the enzyme purified from human liver; host or cells: human liver
T1 sequence (P32320 whole entry): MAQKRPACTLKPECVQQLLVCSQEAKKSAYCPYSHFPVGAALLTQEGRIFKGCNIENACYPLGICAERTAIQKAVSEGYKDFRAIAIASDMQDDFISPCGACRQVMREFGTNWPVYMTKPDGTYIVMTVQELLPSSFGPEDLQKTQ
The conditions noted are these: cited from earlier work.

The next data set relates to B16 melanoma model. The note with it: oral 600 mg/kg/d (Yoshihara et al. 2005); cited from earlier work.

In the case of `C[C@]12CCC(=O)C=C1CC[C@@H]1[C@@H]2[C@@H](O)C[C@@]2(C)[C@H]1CC[C@]2(O)C(=O)CO` [Hydrocortisone], the “Equivalent Potency” value in data set [1] is recorded as 20 mg. Take `Nc1ccn([C@@H]2O[C@H](CO)[C@@H](O)C2(F)F)c(=O)n1` [gemcitabine, 2′,2′-difluorodeoxycytidine]: the “tumor growth compared to vehicle only” value in data set [2] is listed as “inhibited tumor growth at all doses tested”. The “level of CA19-9 marker in serum” value in data set [3] is on record as “approximately similar to vehicle only control”. The half-life in plasma result in data set [4] is “approximately 10 minutes”. Besides, in data set [5], the “Median Survival Time” value came to 38 days. Besides, the median survival result in the data set with pancreatic cancer is recorded as “over 5 months”. Take `Nc1ccn([C@H]2C[C@H](O)[C@@H](CO)O2)c(=O)n1` [deoxycytidine]: the “rate of deamination relative to decitabine at equal concentrations” value at cytidine deaminase is given as “about 6 fold”. Turning to `C[C@]12C=CC(=O)C=C1CC[C@@H]1[C@@H]2[C@@H](O)C[C@@]2(C)[C@H]1CC[C@]2(O)C(=O)CO` [Prednisolone], in data set [1], the “Equivalent Potency” value is 5 mg. On to `C[C@H]1C[C@@H]2[C@H]([C@@H](O)C[C@@]3(C)[C@H]2CC[C@]3(O)C(=O)COC(=O)CCC(=O)O)[C@@]2(C)C=CC(=O)C=C12` [Methylprednisolone sodium succinate], for which the “Equivalent Potency” value in data set [1] is given as 4 mg. On to `Cc1cc(=O)oc2cc(O)ccc12` [4-MU, 7-hydroxy-4-methylcoumarin], for which the reduction of metastases in the data set on B16 melanoma model is given as 64%.
